Experimental data taken from PMC10485820 (European Journal of Pharmaceutical Sciences, 2023).

Tests used:
[1] = Bioavailability in rats (unpublished); conditions: rat, in vivo, oral
[2] = HSK7653 PBPK model development and fitting (SimCYP); set-up: species or system human; conditions: Fitted (based on in vivo data)
Excerpt: The development of the DLM was complex.
In this manuscript, we constructed the ADAM absorption model using the dissolution profile method and DLM method, respectively. The same disposition model was severally coupled with these two different absorption models to capture the absorption and disposition characteristics of HSK7653 in vivo. Here, we collected the CLint_hep and CLR from in vitro experimental results and in vivo clinical trial data without further optimization. […] Therefore, the disposition model of HSK7653 could accurately capture the elimination characteristics of HSK7653 in vivo. […] Furthermore, the models were also validated with PK data from a multiple dose clinical study (CTR20191549). […] Accordingly, the mechanism driven HSK7653 PBPK model can be used to simulate untested scenarios in specific populations.

[3] = biological target: T1, breast cancer resistance protein (Homo sapiens, UniProt Q9UNQ0); assay: Preclinical transporter substrate assessment (unpublished); format: in vitro ADME
T1 sequence (Q9UNQ0 1-655): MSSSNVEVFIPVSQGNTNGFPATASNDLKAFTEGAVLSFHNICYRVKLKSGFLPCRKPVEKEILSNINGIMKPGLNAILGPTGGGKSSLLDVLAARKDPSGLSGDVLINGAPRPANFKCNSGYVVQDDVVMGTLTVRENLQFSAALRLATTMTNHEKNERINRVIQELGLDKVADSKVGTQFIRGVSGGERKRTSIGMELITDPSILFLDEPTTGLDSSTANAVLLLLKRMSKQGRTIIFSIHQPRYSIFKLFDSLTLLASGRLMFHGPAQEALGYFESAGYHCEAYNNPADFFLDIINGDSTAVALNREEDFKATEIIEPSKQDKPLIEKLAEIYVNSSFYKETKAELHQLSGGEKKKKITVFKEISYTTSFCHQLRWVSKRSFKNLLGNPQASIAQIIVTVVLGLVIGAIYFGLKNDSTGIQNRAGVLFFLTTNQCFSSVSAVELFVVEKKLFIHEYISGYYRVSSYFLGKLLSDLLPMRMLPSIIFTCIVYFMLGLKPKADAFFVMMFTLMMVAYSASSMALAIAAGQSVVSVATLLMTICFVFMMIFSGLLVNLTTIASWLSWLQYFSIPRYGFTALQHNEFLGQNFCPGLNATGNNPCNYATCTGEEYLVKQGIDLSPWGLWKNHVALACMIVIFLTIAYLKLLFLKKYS

[4] = biological target: T2, MATE1 (Homo sapiens, UniProt Q96FL8); assay: as above; format: in vitro ADME
T2 sequence (Q96FL8 1-570): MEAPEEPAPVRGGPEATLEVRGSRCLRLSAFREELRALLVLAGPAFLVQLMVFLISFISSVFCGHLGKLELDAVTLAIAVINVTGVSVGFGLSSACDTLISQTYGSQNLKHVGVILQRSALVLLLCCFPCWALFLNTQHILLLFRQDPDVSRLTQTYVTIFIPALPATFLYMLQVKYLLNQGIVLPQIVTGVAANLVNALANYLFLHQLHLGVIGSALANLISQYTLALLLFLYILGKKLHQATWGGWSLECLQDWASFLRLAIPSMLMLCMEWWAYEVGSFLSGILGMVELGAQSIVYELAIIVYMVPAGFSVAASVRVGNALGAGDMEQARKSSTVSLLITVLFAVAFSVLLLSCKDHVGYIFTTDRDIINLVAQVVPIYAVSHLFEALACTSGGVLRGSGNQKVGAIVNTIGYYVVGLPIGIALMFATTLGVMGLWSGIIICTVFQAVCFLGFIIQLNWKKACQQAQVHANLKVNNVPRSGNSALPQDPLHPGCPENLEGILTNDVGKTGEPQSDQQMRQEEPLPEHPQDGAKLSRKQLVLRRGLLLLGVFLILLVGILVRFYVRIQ

For `CS(=O)(=O)n1cc2c(n1)CN([C@@H]1C[C@H](N)[C@@H](c3cc(F)ccc3F)O[C@@H]1C(F)(F)F)C2` [HSK7653], the bioavailability [1] was 94.5%, the “Biliary CLint (CLint_bile)” value [2] was 0.025 μL/min/10^6 and the Transporter substrate assessment [3] was “not a common transport substrate”. The Transporter substrate assessment [4] was “not a common transport substrate”.
